Tested on: human myeloma cell line MM.1S
Test: SILAC acetylated-lysine peptide profiling, HDAC inhibitor vs DMSO (light/heavy ratio)
Assay type: cell-based
From the text: An embodiment of the invention comprises utilizing the SILAC method in order to quantitate changes in protein expression between two or more populations of cells. The SILAC method is a technique based on mass spectrometry that detects differences in protein abundance among samples using non-radioactive isotopic labeling. The SILAC method is known in the art, and described in detail in Ong et al., “Stable Isotope Labeling by Amino Acids in Cell Culture, SILAC, as a Simple and Accurate Approach to Expression Proteomics”, Molecular & Cellular Proteomics, vol. 1, pp. 376-386 (2002), which is incorporated herein by reference in its entirety.
Briefly, the SILAC method involves growing two populations of cells in cell culture. The first population of cells is grown in growth media containing normal amino acids (“normal media”). The second population of cells is grown in media lacking a standard essential amino acid (such as lysine), but is then supplemented with a non-radioactive, isotopically labeled form of that essential amino acid (such as lysine labeled with ^13C atoms, rather than normal ^12C atoms), which is called “heavy media”. When the two populations of cells are each growing in the medium, they incorporate the amino acids into all of their proteins. The growth of cells maintained in the heavy media is no different from that in normal media. All peptides containing the heavy amino acids are heavier than their normal counterparts. The cells from each of the two populations of cells are lysed. The lysates from each of the two cell populations are then combined. The combined cell lysates are then analyzed by mass spectrometry. Pairs of chemically identical peptides of different stable isotope composition can be differentiated in a mass spectrometer due to their difference in mass. The ratio of peak intensities in the mass spectrum for such peptide pairs reflects the abundance ratio for the two proteins.
This example describes SILAC studies that were performed to compare the effects of three different HDAC inhibitors (Compound A, Compound B, and tubastatin A) to a control on a human multiple myeloma cell line. The HDAC inhibitors were also compared amongst themselves to determine differences in their effects.
A human myeloma cell line MM.1S was grown using either ^12C (light) or ^13C (heavy) lysine containing culture medium. The “heavy” cells were treated with DMSO as the control, and the “light” cells were treated with a single HDAC inhibitor at 37° C. for 6 hours. The heavy and light cells were lysed, and the lysates were mixed in 1:1 ratio and digested with the protease trypsin. The acetylated lysine containing peptides (due to the action of the HDAC inhibitor) in the digested peptide pool were captured by a non-specific anti-acetylated lysine antibody cocktail (the antibodies identify both light and heavy acetylated peptides), and subjected to mass spectrometry analysis in order to identify thousands of individual peptides.
Thousands of peptides were identified in pairs (^12C and ^13C) due to their known mass differences. The amino acid sequence and quantitative ratio (Light/Heavy) of a given peptide in two differentially treated cell lysates were then determined and annotated with their possible protein (gene) sources.
As stated above, three HDAC inhibitors (Compound A, Compound B, and Tubastatin A) were used. Thus, the SILAC method was performed three times, with a different HDAC inhibitor compared to a control each time. Accordingly, there are three pairs of quantitative data in the table below, i.e., Compound A:DMSO, Compound B:DMSO, and Tubastatin A:DMSO. A cut-off of 1.30 fold of change (increase or decrease) was then used to determine “changed” or “+” in the table, and any peptides with a fold of change less than 1.3 fold were determined to be “unchanged” or “0” in the table. Those peptides that were not identified were marked as “NA” in the table. […]

## CN1CCc2c(c3ccccc3n2Cc2ccc(C(=O)NO)cc2)C1 [Tub A]
Isoform 2 of Fibronectin type-III domain-containing protein 3A [507], FNDC3A, drug:DMSO
  light to heavy ratio (L/H ratio) of acetylated peptide SNPSEVVEFTTCPDK(ac)PGIPVKPSVK (SEQ ID NO: 336): 0.00 log 2
Isoform 2 of Nuclear factor related to kappa-B-binding protein [1262], gene NFRKB, inhibitor:DMSO
  light to heavy ratio (L/H ratio) of acetylated peptide LIAGNK(ac)PVSFLTAQQLQQLQQQGQATQVR (SEQ ID NO: 512): 0.00 log 2
Isoform 2 of Spliceosome RNA helicase DDX39B [349], SNORD84, DDX39B, drug:DMSO
  light to heavy ratio (L/H ratio) of acetylated peptide YQQFK(ac)DFQR (SEQ ID NO: 258): −0.38 log 2
Isoform 3 of Proline-rich protein 12 [1223], gene PRR12, drug:DMSO
  light to heavy ratio (L/H ratio), log 2 scale, acetylated peptide LEPLK(ac)PLK (SEQ ID NO: 772): 0.00
Isoform 3 of Reticulon-3 [217], gene RTN3, drug:DMSO
  light to heavy ratio (L/H ratio), log 2 scale, acetylated peptide DQTK(ac)SIVEK (SEQ ID NO: 810): 0.00
Isoform 5 of Transcriptional regulator ATRX [812], ATRX, drug:DMSO
  light to heavy ratio (L/H ratio) of acetylated peptide VQDGLSDIAEK(ac)FLK (SEQ ID NO: 326): 0.00 log 2
Isoform CNPI of 23-cyclic-nucleotide 3-phosphodiesterase [177], gene CNP, inhibitor:DMSO
  light to heavy ratio (L/H ratio) of acetylated peptide K(ac)SSETLR (SEQ ID NO: 601): 0.00 log 2
Isoform Heart of ATP synthase subunit gamma mitochondrial [55], ATP5C1, drug:DMSO
  light to heavy ratio (L/H ratio) of acetylated peptide MVAAAK(ac)YAR (SEQ ID NO: 324): 0.00 log 2
Isoform Mitochondrial of Fumarate hydratase mitochondrial [66], gene FH, inhibitor:DMSO
  light to heavy ratio (L/H ratio) of acetylated peptide VPNDK(ac)YYGAQTVR (SEQ ID NO: 625): 0.00 log 2
Isoform Short of Heterogeneous nuclear ribonucleoprotein U [546], HNRNPU, drug:DMSO
  light to heavy ratio (L/H ratio) of acetylated peptide APQCLGK(ac)FIEIAAR (SEQ ID NO: 338): 0.00 log 2
Isoform Short of Heterogeneous nuclear ribonucleoprotein U [651], HNRNPU, drug:DMSO
  light to heavy ratio (L/H ratio) of acetylated peptide LLEQYK(ac)EESK (SEQ ID NO: 302): −0.57 log 2
K(ac)HPDASVNFSEFSK (SEQ ID NO: 164), Similar to nonhistone chromosomal protein HMG-1 [30], HMGB1P4
  light to heavy ratio (L/H ratio) of acetylated peptide, log 2 scale: −0.39
K(ac)TFEINPR (SEQ ID NO: 171), Endoplasmin [683], HSP90B1
  light to heavy ratio (L/H ratio) of acetylated peptide, log 2 scale: −0.73
K(ac)YEDICPSTHNMDVPNIK (SEQ ID NO: 152), Eukaryotic translation initiation factor 5A-2 [68], EIF5A2
  light to heavy ratio (L/H ratio) of acetylated peptide, log 2 scale: −0.56
KLPK(ac)NEPQNATGAPGR (SEQ ID NO: 198), Ras-related protein Rab-5C [184], RAB5C
  light to heavy ratio (L/H ratio) of acetylated peptide, log 2 scale: 0.38
KRR1 small subunit processome component homolog [11], gene KRR1, drug:DMSO
  light to heavy ratio (L/H ratio), log 2 scale, acetylated peptide (ac)ASPSLERPEK(ac)GAGK (SEQ ID NO: 801): 0.00
L-lactate dehydrogenase B chain [82], LDHB, drug:DMSO
  light to heavy ratio (L/H ratio) of acetylated peptide IVADK(ac)DYSVTANSK (SEQ ID NO: 317): 0.51 log 2
LAK(ac)LSDGVAVLK (SEQ ID NO: 484), 60 kDa heat shock protein mitochondrial [396], HSPD1
  L/H ratio of acetylated peptide: 0.00 log 2
LENK(ac)MEGIGLK (SEQ ID NO: 131), PRA1 family protein 3 [151], ARL6IP5
  light to heavy ratio (L/H ratio) of acetylated peptide, log 2 scale: 0.67
LIK(ac)VHLDK (SEQ ID NO: 215), 40S ribosomal protein S7 [155], RPS7
  light to heavy ratio (L/H ratio) of acetylated peptide, log 2 scale: −0.50
LIYDTK(ac)GR (SEQ ID NO: 213), 40S ribosomal protein S4 X isoform [106], RPS4X
  light to heavy ratio (L/H ratio) of acetylated peptide, log 2 scale: −0.40
LMAN1 [346], log 2 scale, drug vs DMSO
  L/H ratio of acetylated peptide IHLEIK(ac)QLNR (SEQ ID NO: 57): −0.56
LMNB1 [261], log 2 scale, drug vs DMSO
  L/H ratio of acetylated peptide LYK(ac)EELEQTYHAK (SEQ ID NO: 4): 0.46
LMNB1 [271], log 2 scale, drug vs DMSO
  L/H ratio of acetylated peptide LYKEELEQTYHAK(ac)LENAR (SEQ ID NO: 58): −0.73
LNEQK(ac)LAQLEEAK (SEQ ID NO: 133), ATP synthase subunit b mitochondrial [131], ATP5F1
  light to heavy ratio (L/H ratio) of acetylated peptide, log 2 scale: 0.72
LOC390956 [71], log 2 scale, drug vs DMSO
  L/H ratio of acetylated peptide GFGYK(ac)GSCFHR (SEQ ID NO: 59): −0.45
LSLDK(ac)VFR (SEQ ID NO: 226), Stomatin-like protein 2 [145], STOML2
  light to heavy ratio (L/H ratio) of acetylated peptide, log 2 scale: −0.41
LTALDYHNPAGFNCK(ac)DETEFR (SEQ ID NO: 137), UPF0568 protein C14orf166 [20], C14orf166
  light to heavy ratio (L/H ratio) of acetylated peptide, log 2 scale: 0.41
LTEAKPVDK(ac)VK (SEQ ID NO: 221), cDNA FLJ60124 highly similar to Mitochondrial dicarboxylate carrier [142], SLC25A10
  light to heavy ratio (L/H ratio) of acetylated peptide, log 2 scale: −0.50
LTLSALLDGK(ac)NVNAGGHK (SEQ ID NO: 466), Voltage-dependent anion-selective channel protein 1 [266], VDAC1
  L/H ratio of acetylated peptide: 0.00 log 2
LVSEK(ac)LASYQAAR (SEQ ID NO: 476), Isoform 2 of Myc proto-oncogene protein [163], MYC
  L/H ratio of acetylated peptide: 0.00 log 2
Laminin receptor-like protein LAMRL5 [89], SNORA6, RPSAP15, SNORA62, RPSA, drug:DMSO
  light to heavy ratio (L/H ratio) of acetylated peptide AVLK(ac)FAAATGATPIAGR (SEQ ID NO: 262): −0.53 log 2
Leucine-rich PPR motif-containing protein mitochondrial [1332], gene LRPPRC, inhibitor:DMSO
  light to heavy ratio (L/H ratio) of acetylated peptide SYVSEK(ac)DVTSAK (SEQ ID NO: 628): 0.00 log 2
MAN2A1 [373], log 2 scale, drug vs DMSO
  L/H ratio of acetylated peptide ICCQFDFK(ac)R (SEQ ID NO: 60): −0.69
MEAF6 [69:74], log 2 scale, drug vs DMSO
  L/H ratio of acetylated peptide YLTNQK(ac)NSNSK(ac)NDR (SEQ ID NO: 17): 0.58
MKENQK(ac)HIYYITGETK (SEQ ID NO: 169), Isoform 2 of Heat shock protein HSP 90-alpha [611], HSP90AA1
  light to heavy ratio (L/H ratio) of acetylated peptide, log 2 scale: −0.46
MLL3 [2809:2814], log 2 scale, drug vs DMSO
  L/H ratio of acetylated peptide TLVLSDK(ac)HSPQK(ac)K (SEQ ID NO: 5): 0.67
MPTPVIK(ac)AFGILK (SEQ ID NO: 154), Isoform Mitochondrial of Fumarate hydratase mitochondrial [94], FH
  light to heavy ratio (L/H ratio) of acetylated peptide, log 2 scale: −0.55
MSN [165], log 2 scale, drug vs DMSO
  L/H ratio of acetylated peptide LNK(ac)DQWEER (SEQ ID NO: 10): −0.38
Mitochondrial trifunctional protein beta subunit (Fragment) [100], gene HADHB, inhibitor:DMSO
  light to heavy ratio (L/H ratio) of acetylated peptide LSLLSK(ac)FR (SEQ ID NO: 564): 0.00 log 2
NAD(P) transhydrogenase mitochondrial [70], NNT, drug:DMSO
  light to heavy ratio (L/H ratio) of acetylated peptide EIFQNEK(ac)R (SEQ ID NO: 288): 0.55 log 2
NAD(P) transhydrogenase mitochondrial [403], NNT, drug:DMSO
  light to heavy ratio (L/H ratio) of acetylated peptide AISPDK(ac)DNFYFDVK (SEQ ID NO: 284): 0.40 log 2
NATVGQSVLNIK(ac)YK (SEQ ID NO: 194), Peroxisome biogenesis factor 2 [84], PEX2
  light to heavy ratio (L/H ratio) of acetylated peptide, log 2 scale: 0.51
NCMTDLLAK(ac)LEAK (SEQ ID NO: 201), Receptor expression-enhancing protein 5 [25], REEP5
  light to heavy ratio (L/H ratio) of acetylated peptide, log 2 scale: 0.49

From US20140357512A1, “HISTONE DEACETYLASE (HDAC) BIOMARKERS IN MULTIPLE MYELOMA” (priority 2013, published 2014)
